Calls of active or inactive are those of the source.
How the values were obtained:
[1] = target: Cytochrome P450 2C19 (Homo sapiens, UniProt P33261); experiment: Cytochrome panel assay with activity outcomes. Panel member name: p450-cyp2c19 Compounds with AC50 equal or less than 10 uM are considered active; assay type: functional
[2] = system: Streptococcus; experiment: Group A Streptococcus viability loss, dose response, counter-screen for streptokinase expression inhibitor project, luminescence, BacTiterGlo (AID 1915); assay type: functional, organism-based;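 also: potency for reduction of bacterial viability or growth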
[3] = target: T1, Streptokinase A (Streptococcus pyogenes serotype M1, UniProt P10520); experiment: S. pyogenes streptokinase expression inhibitors, potency, dose response, plasminogen activation absorbance, OD405 (AID 1914); assay type: functional, Streptococcus pyogenes M1 GAS;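 also: secreted streptokinase activity via plasminogen activation per viability signal from cell pellet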
T1 sequence (P10520 whole entry): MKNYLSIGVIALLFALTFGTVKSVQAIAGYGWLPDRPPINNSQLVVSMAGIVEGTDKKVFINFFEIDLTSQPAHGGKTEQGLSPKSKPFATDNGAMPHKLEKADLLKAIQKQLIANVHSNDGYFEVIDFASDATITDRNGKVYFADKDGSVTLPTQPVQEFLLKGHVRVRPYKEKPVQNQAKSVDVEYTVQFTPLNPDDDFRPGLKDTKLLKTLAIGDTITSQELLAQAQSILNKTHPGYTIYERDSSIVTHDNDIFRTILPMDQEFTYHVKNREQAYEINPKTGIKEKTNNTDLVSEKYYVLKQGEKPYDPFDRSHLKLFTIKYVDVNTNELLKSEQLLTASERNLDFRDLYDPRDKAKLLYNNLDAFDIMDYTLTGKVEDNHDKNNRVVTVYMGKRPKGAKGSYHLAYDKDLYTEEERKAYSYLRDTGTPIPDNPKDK

[4] = system: Streptococcus sp. 'group A'; experiment: growth inhibition of control SK(-) GAS strain, dose response, counter-screen for streptokinase expression inhibitor project, luminescence, kanamycin, BacTiterGlo, confirmation (AID 1900); assay type: functional, organism-based
[5] = target: T2, Rac GTPase-activating protein 1 (Homo sapiens, UniProt Q9H0H5); experiment: MgcRacGAP GTPase-activating activity inhibitors, confirmation, biochemical, ADP Hunter fluorescence, primary and confirmatory (AID 624330); assay type: functional
T2 sequence (Q9H0H5 whole entry): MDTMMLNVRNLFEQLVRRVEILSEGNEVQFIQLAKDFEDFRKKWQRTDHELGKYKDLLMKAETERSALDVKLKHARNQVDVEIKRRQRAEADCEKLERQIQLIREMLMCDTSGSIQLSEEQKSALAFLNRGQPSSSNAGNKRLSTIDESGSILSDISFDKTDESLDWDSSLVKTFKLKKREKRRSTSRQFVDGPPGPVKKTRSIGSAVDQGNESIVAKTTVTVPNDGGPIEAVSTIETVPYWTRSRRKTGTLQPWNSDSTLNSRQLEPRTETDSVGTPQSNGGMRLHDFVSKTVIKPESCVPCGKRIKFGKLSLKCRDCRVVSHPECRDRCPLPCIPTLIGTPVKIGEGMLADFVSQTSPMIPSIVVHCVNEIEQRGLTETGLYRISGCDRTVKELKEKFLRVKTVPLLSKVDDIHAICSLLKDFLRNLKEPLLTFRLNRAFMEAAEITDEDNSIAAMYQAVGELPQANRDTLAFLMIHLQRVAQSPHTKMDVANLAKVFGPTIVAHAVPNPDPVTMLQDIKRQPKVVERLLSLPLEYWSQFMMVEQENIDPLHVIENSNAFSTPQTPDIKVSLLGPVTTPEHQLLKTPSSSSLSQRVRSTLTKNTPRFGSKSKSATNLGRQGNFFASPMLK

[6] = target: Cytochrome P450 2C9 (Homo sapiens, UniProt P11712)
Cytochrome P450 2C9, sequence (P11712 whole entry): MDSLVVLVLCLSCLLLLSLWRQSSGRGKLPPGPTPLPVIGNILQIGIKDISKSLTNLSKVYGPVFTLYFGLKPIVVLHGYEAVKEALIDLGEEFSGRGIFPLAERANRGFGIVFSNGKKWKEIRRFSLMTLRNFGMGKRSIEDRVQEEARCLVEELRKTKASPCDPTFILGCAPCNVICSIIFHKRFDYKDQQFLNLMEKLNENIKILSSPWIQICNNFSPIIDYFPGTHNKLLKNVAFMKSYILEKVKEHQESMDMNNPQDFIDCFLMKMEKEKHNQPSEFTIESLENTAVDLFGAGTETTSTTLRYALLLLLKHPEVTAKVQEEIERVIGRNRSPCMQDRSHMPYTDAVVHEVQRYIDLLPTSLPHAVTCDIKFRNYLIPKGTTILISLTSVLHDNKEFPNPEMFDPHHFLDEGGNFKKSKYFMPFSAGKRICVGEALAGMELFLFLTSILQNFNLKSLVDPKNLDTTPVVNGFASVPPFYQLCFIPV

[7] = target: Cytochrome P450 2D6 (Homo sapiens, UniProt P10635);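 also: CYP2D6 member of a cytochrome P450 panel assay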
Cytochrome P450 2D6, sequence (P10635 whole entry): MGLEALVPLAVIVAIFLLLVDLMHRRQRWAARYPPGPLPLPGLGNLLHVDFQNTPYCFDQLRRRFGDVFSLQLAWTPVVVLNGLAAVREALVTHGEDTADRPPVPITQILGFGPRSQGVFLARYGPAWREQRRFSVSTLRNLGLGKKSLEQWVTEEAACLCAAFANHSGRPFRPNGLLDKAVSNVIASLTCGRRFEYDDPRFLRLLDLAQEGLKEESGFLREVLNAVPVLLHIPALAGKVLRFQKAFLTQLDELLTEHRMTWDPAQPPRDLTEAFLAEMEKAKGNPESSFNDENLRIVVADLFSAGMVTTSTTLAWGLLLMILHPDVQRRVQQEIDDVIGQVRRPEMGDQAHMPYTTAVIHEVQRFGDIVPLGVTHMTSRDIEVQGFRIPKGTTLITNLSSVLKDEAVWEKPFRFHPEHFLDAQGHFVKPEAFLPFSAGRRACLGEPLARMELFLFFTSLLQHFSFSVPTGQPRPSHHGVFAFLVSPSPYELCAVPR

[8] = target: T3, Cytochrome P450 1A2 (Homo sapiens, UniProt P05177)
T3 sequence (P05177 whole entry): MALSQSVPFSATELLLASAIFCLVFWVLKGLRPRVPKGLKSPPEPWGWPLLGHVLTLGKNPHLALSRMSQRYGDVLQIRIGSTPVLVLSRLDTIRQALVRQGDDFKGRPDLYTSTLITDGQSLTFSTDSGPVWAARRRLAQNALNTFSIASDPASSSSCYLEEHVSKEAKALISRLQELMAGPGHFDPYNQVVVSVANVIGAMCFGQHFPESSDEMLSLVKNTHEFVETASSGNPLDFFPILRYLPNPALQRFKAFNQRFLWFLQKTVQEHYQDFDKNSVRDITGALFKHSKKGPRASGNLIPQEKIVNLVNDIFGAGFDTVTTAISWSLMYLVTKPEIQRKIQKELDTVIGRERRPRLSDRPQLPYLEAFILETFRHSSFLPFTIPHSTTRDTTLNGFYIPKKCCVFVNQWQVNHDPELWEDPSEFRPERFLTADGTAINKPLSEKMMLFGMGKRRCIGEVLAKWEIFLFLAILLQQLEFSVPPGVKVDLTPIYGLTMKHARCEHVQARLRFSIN

[9] = target: T4, Corticotropin-releasing factor receptor 2/Corticotropin-releasing factor-binding protein (Homo sapiens, UniProt P24387+Q13324); experiment: activators of CRF receptor 2 with binding protein – uHTS hits, confirmation (AID 602473); assay type: functional; conditions: read-out: EC50_Mean
T4 sequence (Q13324 whole entry): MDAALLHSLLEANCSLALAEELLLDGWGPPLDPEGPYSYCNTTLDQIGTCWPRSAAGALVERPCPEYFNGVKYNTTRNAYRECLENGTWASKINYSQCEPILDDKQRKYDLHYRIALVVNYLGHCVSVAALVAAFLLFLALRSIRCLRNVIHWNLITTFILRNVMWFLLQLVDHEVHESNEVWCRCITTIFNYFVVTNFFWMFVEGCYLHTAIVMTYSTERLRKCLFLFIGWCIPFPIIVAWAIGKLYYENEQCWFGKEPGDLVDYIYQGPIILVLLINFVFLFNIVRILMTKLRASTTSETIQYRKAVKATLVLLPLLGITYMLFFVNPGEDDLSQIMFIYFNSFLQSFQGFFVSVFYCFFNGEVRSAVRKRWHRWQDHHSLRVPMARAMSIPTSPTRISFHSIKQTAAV
T4 sequence (P24387 whole entry): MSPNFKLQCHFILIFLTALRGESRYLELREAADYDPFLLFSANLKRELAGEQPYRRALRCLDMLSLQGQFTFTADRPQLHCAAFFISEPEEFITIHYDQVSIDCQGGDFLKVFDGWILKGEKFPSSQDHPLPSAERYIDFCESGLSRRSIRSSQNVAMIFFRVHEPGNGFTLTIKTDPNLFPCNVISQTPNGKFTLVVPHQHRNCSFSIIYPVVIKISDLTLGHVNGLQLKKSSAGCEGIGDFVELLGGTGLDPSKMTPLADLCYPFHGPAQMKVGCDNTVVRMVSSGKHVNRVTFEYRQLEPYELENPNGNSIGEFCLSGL

Cytochrome P450 2C19, sequence (P33261 whole entry): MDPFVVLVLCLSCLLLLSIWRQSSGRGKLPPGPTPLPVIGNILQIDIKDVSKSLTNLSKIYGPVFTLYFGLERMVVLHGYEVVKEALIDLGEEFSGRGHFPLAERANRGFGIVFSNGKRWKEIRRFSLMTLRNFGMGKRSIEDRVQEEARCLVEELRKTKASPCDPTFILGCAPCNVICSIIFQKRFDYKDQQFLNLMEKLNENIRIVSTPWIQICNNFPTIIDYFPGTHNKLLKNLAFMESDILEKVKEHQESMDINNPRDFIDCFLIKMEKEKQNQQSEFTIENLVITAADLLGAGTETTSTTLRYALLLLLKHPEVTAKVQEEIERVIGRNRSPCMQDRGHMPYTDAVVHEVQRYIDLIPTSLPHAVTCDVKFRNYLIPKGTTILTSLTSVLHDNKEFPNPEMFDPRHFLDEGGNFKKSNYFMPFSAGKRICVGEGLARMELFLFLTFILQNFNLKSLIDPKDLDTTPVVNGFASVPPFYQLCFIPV

Structure (SMILES): N=C(N)SCC(=O)O
- AC50 [1]: inconclusive

Structure (SMILES): CC(=O)NC(CCS(C)(=O)=O)C(=O)Nc1c(F)cccc1F (centres undefined)
- AC50 [1]: inconclusive

Structure (SMILES): O=C(c1cccs1)N1CCC(c2nc(O)c3nnn(Cc4ccccc4Cl)c3n2)CC1
- EC50 [2]: > 50 µM (not active)
- EC50 [3]: > 150 µM (not active)
- EC50 [4]: > 50 µM (not active)

Structure (SMILES): CCOC(=O)c1[nH]c2ccccc2c1N=C(S)Nc1cccc(C)c1
- IC50 [5]: 115 µM (active)

Structure (SMILES): O=c1c(-c2ccc(F)cc2)nc2cnc(Oc3ccccc3)nc2n1Cc1cccs1
- AC50 [6]: 2.51 µM (inconclusive)

Structure (SMILES): COc1ccc(C(=O)N2CCC[C@@]3(CCN(CC(C)C)C3)C2)cc1
- AC50 [7]: 15.8 µM (inconclusive)
- AC50 [8]: 31.6 µM (inconclusive)

Structure (SMILES): COc1cc(/C=C/C(=O)OCC(=O)NCC2CCCCC2)ccc1O
- IC50 [5]: 39.3 µM (active)

Structure (SMILES): Nc1ccc(/N=N\c2ccccc2)c(N)n1
- AC50 [6]: 15.8 µM (inconclusive)
- AC50 ([1]; read-out: AC50): 7.94 µM (inconclusive)

Structure (SMILES): N#Cc1cccc(NC(=O)N2CC[C@@]3(CCCN(S(=O)(=O)c4ccccc4)C3)C2)c1
- AC50 [7]: 39.8 µM (inconclusive)
- AC50 [6]: 39.8 µM (inconclusive)
- AC50 [8]: 25.1 µM (inconclusive)
- AC50 ([1]; read-out: AC50): 39.8 µM (inconclusive)

Structure (SMILES): CCOC(=O)c1ccc(NC(=O)COc2ccccc2OC)cc1
- AC50 [8]: 7.08 µM (inconclusive)
- AC50 ([1]; read-out: AC50): 3.98 µM (inconclusive)

Structure (SMILES): CC(C)CN1CC[C@@]2(CCCN(C(=O)c3cc(C(F)(F)F)cc(C(F)(F)F)c3)C2)C1
- AC50 [8]: 25.1 µM (inconclusive)
- AC50 ([1]; read-out: AC50): 39.8 µM (inconclusive)

Structure (SMILES): CCc1cc2c(=O)c(-c3nc4ccccc4n3C)c(C)oc2c(CN(CC)CC)c1O
- AC50 ([1]; read-out: AC50): 3.55 µM (inconclusive)

Structure (SMILES): Cc1ccccc1NC(=O)NCCCCc1ccccc1
- EC50 [2]: > 150 µM (not active)
- EC50 [3]: > 150 µM (not active)
- EC50 [4]: > 150 µM (not active)

Structure (SMILES): Cn1cc(-c2nc3cnc(N4CCNCC4)nc3n(CCc3ccccc3)c2=O)c2ccccc21
- AC50 [7]: 39.8 µM (inconclusive)
- AC50 [8]: 15.8 µM (inconclusive)

Structure (SMILES): Cc1cnc(CNc2ncncc2-c2ccc3c(c2)OCO3)cn1
- AC50 [7]: 20 µM (inconclusive)

Structure (SMILES): CC(C)CN(Cc1cc(=O)oc2cc3c(cc12)CCCC3)CC(C)C
- EC50 [2]: 21.2 µM (active)
- EC50 [3]: 5.67 µM (active)
- EC50 [4]: 6.12 µM (active)

Structure (SMILES): N#Cc1ccc(OC(=O)c2ccc(NC(=N)N)cc2)cc1.c1ccncc1
- AC50 [7]: 3.16 µM (inconclusive)
- AC50 [8]: 2.51 µM (inconclusive)

Structure (SMILES): CCOC(=O)C1CCCN(C(=O)CSCc2ccccc2)C1 (centres undefined)
- AC50 [7]: 15.8 µM (inconclusive)

Structure (SMILES): COCCN=C(S)NC1CC2CCCC(C1)N2Cc1cccs1 (centres undefined)
- AC50 [6]: 39.8 µM (inconclusive)

Structure (SMILES): CCOC(=O)c1cc2sc(C)cc2n1CC(=O)N1CCN(C(=O)c2ccco2)CC1
- AC50 [6]: 20 µM (inconclusive)
- AC50 [8]: 31.6 µM (inconclusive)

Structure (SMILES): COc1ccc2[nH]cc(CCNc3ccnc(-c4ccccc4C(F)(F)F)n3)c2c1
- AC50 [7]: 15.8 µM (inconclusive)

Structure (SMILES): COc1ccc2nc(N3CCCC(C(=O)NCCCN4CCN(C)CC4)C3)sc2c1 (centres undefined)
- AC50 [6]: 4.47 µM (inconclusive)
- AC50 [8]: 12.6 µM (inconclusive)
- AC50 [1]: inconclusive

Structure (SMILES): O=C(Nc1ncc2c(n1)-c1ccccc1CC2)c1cccc(Cl)c1
- AC50 [6]: 20 µM (inconclusive)
- AC50 [8]: 2.82 µM (inconclusive)

Structure (SMILES): COc1cc(/C=C2\C(=N)N3N=C(CC(=O)N4CCOCC4)SC3=NC2=O)ccc1O
- IC50 [5]: 159 µM (active)

Structure (SMILES): c1cncc(-c2cc(NCc3cccs3)ncn2)c1
- AC50 [7]: 25.1 µM (inconclusive)

Structure (SMILES): O=C(NC(=S)Nc1ccc(-c2nc3ncccc3o2)cc1)c1ccccc1F
- EC50 [2]: 21.3 µM (active)
- EC50 [3]: > 150 µM (not active)
- EC50 [4]: 84.3 µM (active)

Structure (SMILES): CCn1c(=S)sc2c(O)nc(SCC(=O)Nc3cc(OC)ccc3OC)nc21
- EC50 [2]: > 150 µM (not active)
- EC50 [3]: 17.8 µM (inconclusive)
- EC50 [4]: 6.33 µM (active)

Structure (SMILES): Cc1ccc(-c2ncccc2OC(=O)C23CC4CC(CC(C4)C2)C3)cc1
- AC50 [7]: 22.4 µM (inconclusive)
- AC50 [6]: 31.6 µM (inconclusive)

Structure (SMILES): Cc1ccc(S(=O)(=O)N2CCC(=O)N(C(COCc3ccc(Cl)c(Cl)c3)Cc3ccccc3)CC2)cc1 (centres undefined)
- EC50 [9]: 4.29 µM (active)

Structure (SMILES): c1nc(NCCN2CCOCC2)c2cc(-c3ccc4c(c3)OCO4)ccc2n1
- AC50 ([1]; read-out: AC50): 39.8 µM (inconclusive)

Structure (SMILES): COc1ccc(-n2c(C)cc(/C=C3/SC(=S)N(C)C3=O)c2C)cc1
- EC50 [9]: > 53 µM (inactive)

Structure (SMILES): COc1ccc(O[C@H]2C=C[C@@H](c3ccccc3)O[C@H]2CO/N=C\C[C@@H]2C=C[C@H](OC(C)=O)[C@H](COC(C)=O)O2)cc1
- AC50 [6]: 3.16 µM (inconclusive)

Structure (SMILES): COc1ccc(NC(=O)NCCCN2CCCCC2C)cc1 (centres undefined)
- AC50 [6]: 1.26 µM (inconclusive)
- AC50 [8]: 25.1 µM (inconclusive)
- AC50 ([1]; read-out: AC50): 39.8 µM (inconclusive)

Structure (SMILES): CC(=O)N1CCN(c2ccccc2NC(=O)COc2ccc(Br)cc2)CC1
- AC50 [7]: 15.8 µM (inconclusive)

Structure (SMILES): O=C(NCc1cc(C(F)(F)F)ccc1Cl)c1cccc2c1C(=O)c1ccc(N3CCC(Cc4ccccc4)CC3)cc1S2(=O)=O
- EC50 [9]: 5.99 µM (active)

Structure (SMILES): O=C(CNC(=O)c1cccs1)NCC(=O)OCc1ccc(Cl)cc1
- AC50 [6]: 0.126 µM (inconclusive)

Structure (SMILES): CCOC(=O)c1oc2cc(O)cc(C)c2c1C
- IC50 [5]: 21 µM (active)

Structure (SMILES): Oc1ccc(Cc2ccccc2Cl)c(O)c1
- IC50 [5]: 54.8 µM (active)

Structure (SMILES): COc1ccc(C(=O)O[C@H]2CC[C@@]3(C)[C@H]4CC[C@H]5[C@]3(C[C@]3(O)[C@H]6CN7C[C@H](C)CC[C@H]7[C@](C)(O)[C@]6(O)[C@H](O)C[C@]53O)O[C@]24O)cc1OC
- AC50 [1]: inconclusive

Structure (SMILES): CCOC(=O)c1sc(/N=C/c2ccc(O)cc2O)cc1C
- IC50 [5]: 22.4 µM (active)

Structure (SMILES): CCOc1cc(/C=N\n2nnnc2N)ccc1O
- IC50 [5]: 32.1 µM (active)

Structure (SMILES): COc1ccc(CNc2ncnc3ccc(-c4ccc(N(C)C)cc4)cc23)c(OC)c1
- AC50 [7]: 25.1 µM (inconclusive)
- AC50 [6]: 0.398 µM (inconclusive)
